This data set deals with Alternaria.

Each structure is given as a SMILES string.

Consider one molecule from US6852317B2 (priority 2000, dated 2005).

Take `Nc1nc2cccc(-c3ccc(CN4CCS(=O)(=O)CC4)cc3)n2n1` [metabolite]: the activity after heating entry (heating to 80 degrees C. for one hour) was “not lost”. Moreover, the “activity after treatment with acid” value (treated with acid) is on record as “lost”. In addition, the “score against Alternaria after acid treatment” value (treated with acid, score before treatment 0, 0-5 scale) is 5. Also, the “activity after treatment with base” value (treated with base) is “not lost”.
